Measured values reported in ChEMBL document CHEMBL3885881, “DrugMatrix”.

Species on record: Rattus norvegicus
Experiment: DrugMatrix - Regimen: Daily Repeat
Assay type: toxicity, organism-based, Sprague-Dawley
Set-up: regimen Daily Repeat, gender Male, age 6-8 weeks
Settings: in vivo, po, route oral GAVAGE, […]; for ABSOLUTE BASOPHIL / ABSOLUTE EOSINOPHIL / ABSOLUTE LYMPHOCYTE / ABSOLUTE MONOCYTE / ABSOLUTE SEGMENTED NEUTROPHIL / BASOPHIL / EOSINOPHIL / ERYTHROCYTE COUNT / HEMATOCRIT / HEMOGLOBIN / LEUKOCYTE COUNT / LYMPHOCYTE / MEAN CORPUSCULAR HEMOGLOBIN / MEAN CORPUSCULAR HEMOGLOBIN CONCENTRATION / MEAN CORPUSCULAR VOLUME / MONOCYTE / NEUTROPHIL / NUCLEATED RED BLOOD CELLS / PLATELET COUNT: tissue Blood; for ALANINE AMINOTRANSFERASE / ALKALINE PHOSPHATASE / ASPARTATE AMINOTRANSFERASE / BLOOD UREA NITROGEN / CARBON DIOXIDE / CHLORIDE / CHOLESTEROL / CREATINE PHOSPHOKINASE / CREATININE / GLUCOSE / LACTATE DEHYDROGENASE / LIPASE / PHOSPHORUS / POTASSIUM / SODIUM / TOTAL BILIRUBIN / TOTAL PROTEIN / URIC ACID: tissue Plasma
[1] = 36 mg/kg, 120 h, dose level Low, time 5 day
[2] = 386 mg/kg, 72 h, dose level High, time 3 day
[3] = 386 mg/kg, 120 h, dose level High, time 5 day

c1ccc2c(c1)Nc1ccccc1S2 [PHENOTHIAZINE]
ABSOLUTE BASOPHIL [1]: 0 CELLS/uL
ABSOLUTE EOSINOPHIL [1]: 85 CELLS/uL
ABSOLUTE LYMPHOCYTE [1]: 7942.67 CELLS/uL
ABSOLUTE MONOCYTE [1]: 54.67 CELLS/uL
ABSOLUTE SEGMENTED NEUTROPHIL [1]: 984.33 CELLS/uL
BASOPHIL [1]: 0%
EOSINOPHIL [1]: 1%
ERYTHROCYTE COUNT [1]: 5.36 x10E6/uL
HEMATOCRIT [1]: 33.6%
HEMOGLOBIN [1]: 13.03 G/DL
LEUKOCYTE COUNT [1]: 9.07 x10E3/uL
LYMPHOCYTE [1]: 87.67%
MEAN CORPUSCULAR HEMOGLOBIN [1]: 24.33 pg
MEAN CORPUSCULAR HEMOGLOBIN CONCENTRATION [1]: 38.8 G/DL
MEAN CORPUSCULAR VOLUME [1]: 62.63 fL
MONOCYTE [1]: 0.67%
NEUTROPHIL [1]: 10.67%
NUCLEATED RED BLOOD CELLS [1]: 0 /100WBC
PLATELET COUNT [1]: 1083 x10E3/uL
ALANINE AMINOTRANSFERASE [1]: 54.67 u/L
ALKALINE PHOSPHATASE [1]: 331 u/L
ASPARTATE AMINOTRANSFERASE [1]: 95.67 u/L
BLOOD UREA NITROGEN [1]: 13.33 mg/dL
CARBON DIOXIDE [1]: 27 mmol/L
CHLORIDE [1]: 101.67 MEQ/L
CHOLESTEROL [1]: 59.67 mg/dL
CREATINE PHOSPHOKINASE [1]: 568.67 u/L
CREATININE [1]: 0.17 mg/dL
GLUCOSE [1]: 162.33 mg/dL
LACTATE DEHYDROGENASE [1]: 99.67 u/L
LIPASE [1]: 10.33 u/L
PHOSPHORUS [1]: 9.13 mg/dL
POTASSIUM [1]: 5.69 MEQ/L
SODIUM [1]: 147.3 MEQ/L
TOTAL BILIRUBIN [1]: 0.2 mg/dL
TOTAL PROTEIN [1]: 5.73 G/DL
URIC ACID [1]: 0.57 mg/dL
ABSOLUTE BASOPHIL [2]: 0 CELLS/uL
ABSOLUTE EOSINOPHIL [2]: 0 CELLS/uL
ABSOLUTE LYMPHOCYTE [2]: 9449.33 CELLS/uL
ABSOLUTE MONOCYTE [2]: 225 CELLS/uL
ABSOLUTE SEGMENTED NEUTROPHIL [2]: 1559 CELLS/uL
BASOPHIL [2]: 0%
EOSINOPHIL [2]: 0%
ERYTHROCYTE COUNT [2]: 6.26 x10E6/uL
HEMATOCRIT [2]: 38.97%
HEMOGLOBIN [2]: 14.93 G/DL
LEUKOCYTE COUNT [2]: 11.23 x10E3/uL
LYMPHOCYTE [2]: 84.67%
MEAN CORPUSCULAR HEMOGLOBIN [2]: 23.83 pg
MEAN CORPUSCULAR HEMOGLOBIN CONCENTRATION [2]: 38.3 G/DL
MEAN CORPUSCULAR VOLUME [2]: 62.3 fL
MONOCYTE [2]: 2%
NEUTROPHIL [2]: 13.33%
NUCLEATED RED BLOOD CELLS [2]: 0 /100WBC
PLATELET COUNT [2]: 976.33 x10E3/uL
ALANINE AMINOTRANSFERASE [2]: 78.33 u/L
ALKALINE PHOSPHATASE [2]: 354.33 u/L
ASPARTATE AMINOTRANSFERASE [2]: 109.33 u/L
BLOOD UREA NITROGEN [2]: 12.67 mg/dL
CARBON DIOXIDE [2]: 29.67 mmol/L
CHLORIDE [2]: 97 MEQ/L
CHOLESTEROL [2]: 128 mg/dL
CREATINE PHOSPHOKINASE [2]: 511 u/L
CREATININE [2]: 0.21 mg/dL
GLUCOSE [2]: 125 mg/dL
LACTATE DEHYDROGENASE [2]: 138.67 u/L
LIPASE [2]: 40.67 u/L
PHOSPHORUS [2]: 7.87 mg/dL
POTASSIUM [2]: 5.77 MEQ/L
SODIUM [2]: 142 MEQ/L
TOTAL BILIRUBIN [2]: 0.7 mg/dL
TOTAL PROTEIN [2]: 5.53 G/DL
URIC ACID [2]: 0.6 mg/dL
ABSOLUTE BASOPHIL [3]: 0 CELLS/uL
ABSOLUTE EOSINOPHIL [3]: 0 CELLS/uL
ABSOLUTE LYMPHOCYTE [3]: 8085.67 CELLS/uL
ABSOLUTE MONOCYTE [3]: 101 CELLS/uL
ABSOLUTE SEGMENTED NEUTROPHIL [3]: 1546.67 CELLS/uL
BASOPHIL [3]: 0%
EOSINOPHIL [3]: 0%
ERYTHROCYTE COUNT [3]: 5 x10E6/uL
HEMATOCRIT [3]: 31.27%
HEMOGLOBIN [3]: 12.03 G/DL
LEUKOCYTE COUNT [3]: 9.73 x10E3/uL
LYMPHOCYTE [3]: 82.67%
MEAN CORPUSCULAR HEMOGLOBIN [3]: 24.07 pg
MEAN CORPUSCULAR HEMOGLOBIN CONCENTRATION [3]: 38.53 G/DL
MEAN CORPUSCULAR VOLUME [3]: 62.43 fL
MONOCYTE [3]: 1%
NEUTROPHIL [3]: 16.33%
NUCLEATED RED BLOOD CELLS [3]: 0 /100WBC
PLATELET COUNT [3]: 1551.67 x10E3/uL
ALANINE AMINOTRANSFERASE [3]: 64.67 u/L
ALKALINE PHOSPHATASE [3]: 210.67 u/L
ASPARTATE AMINOTRANSFERASE [3]: 87.67 u/L
BLOOD UREA NITROGEN [3]: 15.33 mg/dL
CARBON DIOXIDE [3]: 27.67 mmol/L
CHLORIDE [3]: 101 MEQ/L
CHOLESTEROL [3]: 108.33 mg/dL
CREATINE PHOSPHOKINASE [3]: 236 u/L
CREATININE [3]: 0.23 mg/dL
GLUCOSE [3]: 135 mg/dL
LACTATE DEHYDROGENASE [3]: 68.67 u/L
LIPASE [3]: 11.33 u/L
PHOSPHORUS [3]: 9.1 mg/dL
POTASSIUM [3]: 5.66 MEQ/L
SODIUM [3]: 145.9 MEQ/L
TOTAL BILIRUBIN [3]: 0.33 mg/dL
TOTAL PROTEIN [3]: 5.3 G/DL
URIC ACID [3]: 0.77 mg/dL
